Values of other authors, collected in publication PMC3388044, “Probing of Exosites Leads to Novel Inhibitor Scaffolds of HCV NS3/4A Proteinase” (PLoS ONE, 2012).
pIC50, pKi: −log10 of the molar value. Read-outs that look alike come from different tables or passages of the source.

Columns and labels:
HCV replicon (WT NS3/4A) = conditions: HCV replicon with luciferase readout; cited from earlier work
[1] = system: HCV replicon (NS3/4A V36M); conditions: mutant HCV replicon with luciferase readout; cited from earlier work
[2] = system: HCV replicon (NS3/4A R155K); conditions: mutant HCV replicon with luciferase readout; cited from earlier work
[3] = system: HCV replicon (NS3/4A A156T); conditions: cited from earlier work
[4] = system: HCV replicon (NS3/4A D168A); conditions: cited from earlier work
NS3/4A (WT) = conditions: purified recombinant WT NS3/4A in vitro; read-out: WT IC50 (purified enzyme); cited from earlier work
NS3/4A V36M = conditions: cited from earlier work
NS3/4A R155K = conditions: cited from earlier work
NS3/4A D168A = conditions: cited from earlier work
NS3/4A = target: NS3/4A; parameters: method as in PMID 19505593; conditions: cited from earlier work
[5] = fold change vs WT, mutant HCV replicon
[6] = mutant HCV replicon with luciferase readout
[7] = fold change vs WT, purified recombinant enzyme

## CCC[C@H](NC(=O)[C@@H]1[C@H]2CCC[C@H]2CN1C(=O)[C@@H](NC(=O)[C@@H](NC(=O)c1cnccn1)C1CCCCC1)C(C)(C)C)C(=O)C(=O)NC1CC1 [Telaprevir, telaprevir]
HCV replicon (WT NS3/4A)
  pIC50: 6.82
[1]
  pIC50: 6.05
[2]
  pIC50: 5.83
[3]; [5]
  A156T FC (replicon): 105
[3]; [6]
  pIC50: 4.69
[4]; [5]
  D168A FC (replicon): 0.4
[4]; [6]
  pIC50: 7.34
NS3/4A (WT)
  pIC50: 7.62
NS3/4A V36M; [7]
  V36M FC (purified enzyme): 11.3
NS3/4A V36M; purified recombinant mutant NS3/4A in vitro, read-out: V36M IC50 (purified enzyme)
  pIC50: 6.57
NS3/4A R155K; [7]
  R155K FC (purified enzyme): 4.8
NS3/4A R155K; purified recombinant mutant NS3/4A in vitro, read-out: R155K IC50 (purified enzyme)
  pIC50: 6.94
NS3/4A D168A; [7]
  D168A FC (purified enzyme): 0.4
NS3/4A D168A; purified recombinant mutant NS3/4A in vitro, read-out: D168A IC50 (purified enzyme)
  pIC50: 8.05
NS3/4A; improved KI after fast covalent bond formation, read-out: KI after covalent bond formation
  pKi: ~7.40
NS3/4A; initial non-covalent binding step, read-out: KI, non-covalent binding step
  pKi: ~5.22
